{"source": "patent US20210029993A1", "about": "“SPATIAL INHIBITORS, DETERRENTS AND REPELLENTS FOR MOSQUITOES AND MIDGES” (BEDOUKIAN RESEARCH, INC., priority 2005, published 2021)", "key": {"mosquitoes [1]": {"tested_on": "mosquitoes", "assay": "Limonene tested against mosquitoes (background)", "assay_type": "in vivo", "settings": "background statement"}, "[2]": {"tested_on": "mosquitoes and biting midges", "settings": "related art; cited from earlier work"}, "[3]": {"tested_on": "female mosquitoes (Aedes aegypti)", "assay": "Mosquitoes flying test (Plexiglas module, mosquitoes flying within the apparatus)", "assay_type": "in vivo", "settings": "flying relative to control, FIGS. 2 and 4", "method": "(§1) The test was conducted at 0900-2100 hours in a walk-in incubator (26° C., 63-80% RH) illuminated by fluorescent lights. Mosquitoes were tested in a two-piece Plexiglas module designed to assess their response to feeding deterrents. The bottom piece of the module was 40×7×4-cm hollow platform supporting six circular wells (diameter=3.8 cm, depth=6 mm). Water (40° C.) flowed through the central cavity of the platform at a rate of 215 ml/min. The top piece of the module consisted of six 4.5×4.0×5.0 cm chambers, the floors of which were fitted with a sliding door positioned over a circular opening 3.5 cm in diameter. Mosquitoes were introduced through an aperture 1 cm in diameter on the front wall of the chambers. For each test, five female mosquitoes (Aedes aegypti) were aspirated into each of five chambers of the top module piece and the apertures were plugged with corks wrapped in plastic film. The wells on the bottom piece of the module were filled with 7 ml of 10% sucrose solution containing ATP (2.9 mg/ml). To each well, 75 μl of green dye (McCormick Food, Hunt Valley, Md.) were added so that those mosquitoes imbibing the sugar solution could be identified when crushed at the end of the tests. Each membrane received 50 ul of acetone or experimental compound solution, applied to 9.6 cm^2 circular area on 0.1 mm-thick membranes made of nylon mesh in a silicone matrix. The membranes were then placed over each well in contact with the sugar solution.\n(§2) The circular openings on the floor of each chamber of the top piece of the module were aligned with each membrane-covered well of the bottom piece. The sliding floors of the chambers were then opened allowing mosquitoes access to the membranes. The number of mosquitoes landing on the membranes, and those flying within the apparatus, were recorded each minute for five minutes. After five minutes, any mosquitoes remaining on the membranes were removed with a metal wire, and the door of the floor of each chamber was closed. The top piece of the module was then placed into a freezer for 20 minutes. In the test designed to assess feeding, mosquitoes were removed from the frozen module, crushed on white paper towels, and examined for the presence of green dye to indicate that feeding had occurred. The proportions of mosquitoes feeding per trial were analyzed using a standard generalized linear model with a logit link. Landing and flying scores are repeated measures; five reading were obtained for groups of five mosquitoes. Thus, to maintain independence among the data, the five readings were summed, and then the sums divided by 25 (the maximum score in each category) to create proportions of mosquitoes landing and flying. The proportions were then transferred using the standard variance stabilizing transformation for proportions (sin^−1 √y, where y is the proportion), and analyzed using ANOVA (Analysis of Variables)\nIn Table 2, weight percent (wt %) refers to the weight of the deterring/repelling/inhibiting compound, or combination of compounds, in the composition used in the tests. […] The weight ratio of the compounds in the combination of compounds is given in parentheses in the “Compound(s)” column of Table 2."}, "[4]": {"tested_on": "female mosquitoes (Aedes aegypti)", "assay": "Mosquitoes feeding test (Plexiglas module, treated membrane over dyed sucrose/ATP solution)", "assay_type": "in vivo", "settings": "feeding relative to control, FIGS. 1 and 3", "method": "as §1, §2\nIn Table 1, weight percent (wt %) refers to the weight of the deterring/repelling/inhibiting compound, or combination of compounds, in the composition used in the tests. […] The weight ratio of the compounds in the combination of compounds is given in parentheses in the “Compound(s)” column of Table 1."}, "mosquitoes [5]": {"tested_on": "mosquitoes", "assay": "Spatial inhibition of mosquitoes, outdoor Mosquito Magnet Liberty Plus trap catch", "assay_type": "in vivo", "settings": "two grams of test compound on absorbent material in CO2 and r-octenol stream of trap; 2-5 days; FIG. 5", "method": "Two grams of test compound was absorbed onto pieces of absorbent material. These pieces of absorbent material (fragrance release material from Rhopore Inc.) containing absorbed test compound were then placed in a stream of CO2 and r-octenol being released from an American Biophysics Mosquito Magnet Liberty Plus mosquito trap designed to attract mosquitoes. The test were rotated over a period of 2-5 days in such a manner that both control (trap without test compound) and test compound were tested an equal number of times in each trap employed. The number of mosquitoes caught in the traps with test compounds was compared to the number of mosquitoes caught in the trap with no test compound material present. […] Thus, a lowered percentage is indicative of the increasing ability of the test compounds to inhibit the ability of the mosquitoes sense the target. […] In Table 3, weight percent (wt %) refers to the weight of the deterring/repelling/inhibiting compound, or combination of compounds, in the composition used in the tests. In the “Percent Caught Relative to Control” column in Table 3, a lower percentage is indicative of the increasing ability of the test compounds to inhibit the ability of the mosquitoes sense the target. The weight ratio of the compounds in the combination of compounds is given in parentheses in the “Compound(s)” column of Table 3."}}, "data": [{"compound": "C=C(C)C1CC=C(C)CC1", "note": "(stereo not drawn) [limonene]", "values": [{"measurement": "repellent or spatial inhibitor efficacy against mosquitoes, in words", "setting": "mosquitoes [1]", "value": "not found to be either an effective repellent or spatial inhibitor"}]}, {"compound": "C=CC(C)(O)CCC=C(C)C", "note": "(stereo not drawn) [linalool]", "values": [{"measurement": "spatial inhibitor efficacy, in words", "setting": "[2]", "value": "act as spatial inhibitors"}]}, {"compound": "(+)/(−) limonene oxide", "values": [{"measurement": "spatial inhibitor activity for mosquitoes (flying tests, FIGS. 2 and 4), in words", "setting": "[3]", "value": "particularly effective as spatial inhibitors for mosquitoes"}, {"measurement": "contact mosquito repellent activity (feeding tests, FIGS. 1 and 3), in words", "setting": "[4]", "value": "especially effective as contact mosquito repellents"}]}, {"compound": "cis and trans carveol", "values": [{"measurement": "contact mosquito repellent activity (feeding tests, FIGS. 1 and 3), in words", "setting": "[4]", "value": "especially effective as contact mosquito repellents"}, {"measurement": "percent mosquitoes caught relative to the control (relative catch)", "setting": "mosquitoes [5]", "value": "about 43%"}]}]}
